# From patent publication US10253341B2, “Mutant sugar isomerase with improved activity, derived from E. coli, and production of L-gulose using the same” (priority 2014, dated 2019)
# Experiments:
# Format in all cases: biochemical
# [1] = biological target: Escherichia coli O157:H7 sugar isomerase (EcSI, SEQ ID NO: 3) variant I112C T56M (Escherichia coli, UniProt A0A6M7H989, I112C/T56M)
# [2] = biological target: Escherichia coli O157:H7 sugar isomerase (EcSI, SEQ ID NO: 3) variant M92L (Escherichia coli, UniProt A0A6M7H989, M92L)
# [3] = biological target: Escherichia coli O157:H7 sugar isomerase (EcSI, SEQ ID NO: 3) variant T56M (Escherichia coli, UniProt A0A6M7H989, T56M)
# [4] = biological target: Escherichia coli O157:H7 sugar isomerase (EcSI, SEQ ID NO: 3) variant I112C (Escherichia coli, UniProt A0A6M7H989, I112C)
# [5] = biological target: Escherichia coli O157:H7 sugar isomerase (EcSI, SEQ ID NO: 3) variant I112C T56M M92L (Escherichia coli, UniProt A0A6M7H989, I112C/M92L/T56M)
# [6] = biological target: Escherichia coli O157:H7 sugar isomerase (EcSI), wild type, SEQ ID NO: 3 (Escherichia coli, UniProt A0A6M7H989)
smiles,measurement,setting,value
OCC1(O)OC[C@H](O)[C@@H](O)[C@@H]1O (stereo partly drawn) [L-sorbose],kcat,[1],144 S^−1
same,kcat/Km,[1],1.53 mM^−1S^−1
same,kcat,[2],105 S^−1
same,kcat/Km,[2],0.70 mM^−1S^−1
same,kcat,[3],101 S^−1
same,kcat/Km,[3],0.85 mM^−1S^−1
same,kcat,[4],88 S^−1
same,kcat/Km,[4],0.92 mM^−1S^−1
same,kcat,[5],245 S^−1
same,kcat/Km,[5],2.28 mM^−1S^−1
same,kcat,[6],84 S^−1
same,kcat/Km,[6],0.63 mM^−1S^−1
